Test results from patent US12303509B2, “Compounds for the treatment of BRAF-associated diseases and disorders” (Pfizer Inc., priority 2020, dated 2025).
Where a name gives a salt, the structure may show the parent alone. Read-outs that look alike come from different tables or passages of the source.

Legend:
[1] = target: full-length FLAG-tagged B-Raf(V600E) (Homo sapiens (Human), UniProt P15056, V600E); experiment: BRAF V600E enzyme assay (TR-FRET competitive displacement); assay type: binding
Protocol: A competitive displacement assay was configured for B-Raf that monitors the amount of a fluorescently-tagged “tracer” bound to B-Raf via TR-FRET from an anti-tag Eu-labeled antibody also bound to B-Raf. For full-length FLAG-tagged B-Raf(V600E), the assay mixtures consisted of 25 mM K^+HEPES, pH 7.4, 10 mM MgCl2, 0.01% Triton X-100, 1 mM DTT, 2% DMSO (from compound), 50 nM Tracer 1710 (ThermoFisher, PR9176A), 0.5 nM Eu anti-FLAG (M2)-cryptate Ab (Cisbio, 61FG2KLB) and 5 nM full-length, N-terminally FLAG-tagged B-Raf(V600E) (Origene Technologies, TP700031. Compounds were typically diluted in DMSO across an 11-point dosing range created using a 3-fold serial dilution protocol at a top dose of 10 μM. The assay was run in 384-well, polystyrene, low-volume, non-treated, white microtiter plates (Costar 4512) in a final volume of 12 μL. Low control wells included 1 μM of a potent B-Raf inhibitor as a control. The assays were incubated at ambient temperature (typically 22° C.) for 60 min and then read on a PerkinElmer EnVision microplate reader using standard TRF settings (λEx=320 nm, λEm=615 & 665 nm). The ratioed counts (665 nm/615 nm) were converted to percent of control (POC) using the following equation:
[formula] • where: • Xmax Average Uninhibited Controls • Xmin Average Background
A 4-parameter logistic model was the fit to the POC data for each compound. From that fit, the IC50 was estimated and is defined as the concentration of compound at which the best-fit curve crosses 50 POC.

[2] = test system: A375 cells; experiment: Cellular phospho-ERK inhibition assay in A375 cells; assay type: cell-based; details: Homo sapiens, A-375, A375 cells (head prints A357), 2 hours treatment, read-out: A357 cell IC50
Protocol: (§1) A375 and H1755 cells were obtained from the American Type Culture Collection (ATCC, Rockville, MD). A375 cells were maintained in DMEM growth medium containing 10% FBS. H1755 cells were maintained in RPMI growth medium containing 10% FBS.
(§2) Cells were harvested according to standard protocols, counted and plated onto flat-bottom, 96-well tissue culture plates (Costar #3599) at 2.5×10^4 cells/well for A375 cells and 1.5×10^4 cells/well for H1755 cells in 100 μL/well of growth medium containing 10% FBS. After an overnight incubation at 37° C. with 5% CO2 cells were treated for 2 hours at 37° C., 5% CO2 with compounds prepared as a 9-point, 1:3.33 fold dilution series with final compound concentrations ranging from 66 pM-10 μM and a constant DMSO concentration of 0.25%. Control wells contained either 0.25% DMSO alone (uninhibited control) or 10 μM binimetinib (complete inhibition control). The levels of phosphorylated ERK are determined using an In Cell Western protocol: following compound incubation, growth medium was discarded, and cells were fixed with 0.4% formaldehyde in PBS for 20 minutes at room temperature. Cells were permeabilized with 100% methanol for 10 minutes at room temperature. Plates were washed with PBS containing 0.05% Tween-20 and blocked for 1 hour at room temperature with LI-COR Blocking Buffer (LI-COR Biosciences; Cat #927-40000). Plates were then incubated for 2 hours at room temperature with 50 μL of a 1:400 dilution of anti-phospho-ERK1/2 (Thr202/Tyr204) (Cell Signaling; Cat #9101) and a 1:1000 dilution of anti-GAPDH (Millipore; Cat #MAB374) in LI-COR blocking buffer containing 0.05% Tween-20. Plates were washed with PBS containing […] Tween-20 then incubated at room temperature for 1 hour with 50 μL of a 1:1000 dilution of anti-rabbit AlexaFluor 680 (Life Technologies; Cat #A21109) and a 1:1000 dilution of anti-mouse IRDye 800CW (LI-COR; Cat #926-32210) in LI-COR blocking buffer containing 0.05% Tween-20. Plates were analyzed by reading on an Odyssey CLx infrared scanner. For each well, the phospho-ERK signal was normalized to the GAPDH signal and converted to POC using the following equation:
(§3) [formula] • Where: • Xmax Average Uninhibited Controls • Xmin Average Complete Inhibition Controls IC50 values were then calculated using a 4-parameter fit in XLfit software and are provided in Table A1.

[3] = test system: H1755 cells; experiment: Cellular phospho-ERK inhibition assay in H1755 cells; assay type: cell-based; details: Homo sapiens, NCI-H1755, 2 hours treatment, read-out: H1755 Cell IC50
Protocol: as §1, §2, §3

[4] = target: P-gp (MDR1) (Homo sapiens (Human), UniProt P08183); experiment: MDR1 LLC-PK1 permeability assay: efflux ratio; assay type: in vitro ADME; details: pig
Description: (§4) Final organic concentration in the assay was 1%.

[5] = MDR1 LLC-PK1 and BCRP MDCKII permeability assay: permeability coefficient (Papp); assay type: in vitro ADME
Description: as §4

[6] = target: BCRP (Homo sapiens (Human), UniProt Q9UNQ0); experiment: BCRP MDCKII permeability assay: efflux ratio; assay type: in vitro ADME; details: dog
[7] = averaged IC50, TR-FRET tracer displacement, 60 min

Chain of full-length FLAG-tagged B-Raf(V600E) (P15056 whole entry V600E): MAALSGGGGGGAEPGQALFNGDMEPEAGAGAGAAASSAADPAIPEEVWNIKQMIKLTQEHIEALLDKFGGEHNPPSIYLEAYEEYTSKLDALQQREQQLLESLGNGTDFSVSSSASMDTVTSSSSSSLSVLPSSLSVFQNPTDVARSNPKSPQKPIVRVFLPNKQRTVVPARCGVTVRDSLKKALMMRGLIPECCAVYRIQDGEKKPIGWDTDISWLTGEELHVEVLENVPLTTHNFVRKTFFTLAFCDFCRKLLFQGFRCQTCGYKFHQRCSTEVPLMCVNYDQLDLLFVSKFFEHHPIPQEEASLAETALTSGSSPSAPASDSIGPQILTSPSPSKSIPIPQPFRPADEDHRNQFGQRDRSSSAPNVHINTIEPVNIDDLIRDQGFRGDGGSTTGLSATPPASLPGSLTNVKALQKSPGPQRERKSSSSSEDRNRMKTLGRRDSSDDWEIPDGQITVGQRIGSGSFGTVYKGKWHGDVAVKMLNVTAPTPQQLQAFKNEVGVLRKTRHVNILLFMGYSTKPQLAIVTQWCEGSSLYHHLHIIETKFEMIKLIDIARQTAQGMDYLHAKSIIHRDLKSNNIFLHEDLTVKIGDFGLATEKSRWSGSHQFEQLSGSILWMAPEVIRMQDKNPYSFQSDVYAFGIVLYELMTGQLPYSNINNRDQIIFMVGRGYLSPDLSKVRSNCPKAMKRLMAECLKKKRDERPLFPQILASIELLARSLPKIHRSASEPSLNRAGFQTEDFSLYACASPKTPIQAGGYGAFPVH
Chain of BCRP (Q9UNQ0 whole entry): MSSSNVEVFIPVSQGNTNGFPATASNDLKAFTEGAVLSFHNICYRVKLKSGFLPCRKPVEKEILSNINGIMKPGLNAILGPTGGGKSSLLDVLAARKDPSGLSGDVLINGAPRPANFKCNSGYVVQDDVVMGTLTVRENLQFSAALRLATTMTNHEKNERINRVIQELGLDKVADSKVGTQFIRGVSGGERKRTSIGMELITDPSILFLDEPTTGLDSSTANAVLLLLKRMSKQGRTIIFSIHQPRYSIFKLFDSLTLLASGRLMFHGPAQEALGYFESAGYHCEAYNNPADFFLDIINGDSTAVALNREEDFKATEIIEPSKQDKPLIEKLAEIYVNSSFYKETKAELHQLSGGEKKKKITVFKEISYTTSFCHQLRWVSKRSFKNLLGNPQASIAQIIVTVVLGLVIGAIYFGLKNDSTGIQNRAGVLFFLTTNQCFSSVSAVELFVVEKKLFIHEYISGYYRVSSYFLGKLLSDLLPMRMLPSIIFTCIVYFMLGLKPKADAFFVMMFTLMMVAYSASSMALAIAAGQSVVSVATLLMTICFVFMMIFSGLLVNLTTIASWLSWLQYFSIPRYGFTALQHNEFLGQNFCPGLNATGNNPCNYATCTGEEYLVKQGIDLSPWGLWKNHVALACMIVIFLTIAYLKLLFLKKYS
Chain of P-gp (MDR1) (P08183 whole entry, species assumed): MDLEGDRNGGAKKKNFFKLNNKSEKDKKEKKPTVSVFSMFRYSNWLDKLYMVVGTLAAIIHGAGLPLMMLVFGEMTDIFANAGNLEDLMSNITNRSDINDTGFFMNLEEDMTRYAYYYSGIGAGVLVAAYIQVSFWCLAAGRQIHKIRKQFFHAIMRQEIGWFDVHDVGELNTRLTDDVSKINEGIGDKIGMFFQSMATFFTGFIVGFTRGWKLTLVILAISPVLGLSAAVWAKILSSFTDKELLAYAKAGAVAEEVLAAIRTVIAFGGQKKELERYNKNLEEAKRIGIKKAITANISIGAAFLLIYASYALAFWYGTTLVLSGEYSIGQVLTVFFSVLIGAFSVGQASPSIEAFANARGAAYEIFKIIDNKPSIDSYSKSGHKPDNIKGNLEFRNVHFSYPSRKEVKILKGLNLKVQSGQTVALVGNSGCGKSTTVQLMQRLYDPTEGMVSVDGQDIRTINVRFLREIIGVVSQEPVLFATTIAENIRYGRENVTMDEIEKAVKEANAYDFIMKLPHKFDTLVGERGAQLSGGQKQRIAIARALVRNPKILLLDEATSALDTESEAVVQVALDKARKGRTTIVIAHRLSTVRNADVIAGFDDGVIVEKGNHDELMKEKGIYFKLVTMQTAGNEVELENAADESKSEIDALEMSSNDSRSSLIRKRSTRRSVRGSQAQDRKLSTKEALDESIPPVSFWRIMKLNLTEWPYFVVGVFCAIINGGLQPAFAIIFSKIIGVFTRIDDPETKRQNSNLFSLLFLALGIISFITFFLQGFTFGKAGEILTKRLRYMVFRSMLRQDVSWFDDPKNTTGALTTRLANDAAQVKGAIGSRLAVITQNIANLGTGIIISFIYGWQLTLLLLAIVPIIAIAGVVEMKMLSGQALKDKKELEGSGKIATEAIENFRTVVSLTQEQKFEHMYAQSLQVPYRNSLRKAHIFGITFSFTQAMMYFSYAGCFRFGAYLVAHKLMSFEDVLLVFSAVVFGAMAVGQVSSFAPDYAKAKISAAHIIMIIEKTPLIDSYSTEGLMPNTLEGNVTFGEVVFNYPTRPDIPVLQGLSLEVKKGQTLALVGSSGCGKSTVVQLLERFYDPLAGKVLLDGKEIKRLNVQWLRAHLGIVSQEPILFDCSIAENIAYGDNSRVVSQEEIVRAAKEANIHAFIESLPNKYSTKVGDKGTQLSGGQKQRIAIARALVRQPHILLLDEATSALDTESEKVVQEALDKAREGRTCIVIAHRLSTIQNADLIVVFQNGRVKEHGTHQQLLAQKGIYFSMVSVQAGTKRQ

| SMILES | IC50 [1, 7] | IC50 [2] | IC50 [3] | efflux ratio at 2 h, 1 µM [4] | IC50 [1] | Papp at 2 h, 1 µM [5] | efflux ratio at 2 h, 1 µM [6] |
| --- | --- | --- | --- | --- | --- | --- | --- |
| CO[C@H]1CN(S(=O)(=O)Nc2cc(F)c(F)c(Nc3ccc4ncn(C)c(=O)c4c3C)c2Cl)C[C@H]1F (relative stereo) [Example 100, cis-N-(2-chloro-3-((3,5-dimethyl-4-oxo-3,4-dihydroquinazolin-6-yl)amino)-4,5-difluorophenyl)-3-fluoro-4-methoxypyrrolidine-1-sulfonamide] | 0.006 µM | 0.047 µM | 0.293 µM |  |  |  |  |
| C=Cc1c(Nc2c(F)ccc(NS(=O)(=O)N3CCCC3)c2Cl)ccc2ncn(C)c(=O)c12 [Example 51, N-(2-chloro-4-fluoro-3-((3-methyl-4-oxo-5-vinyl-3,4-dihydroquinazolin-6-yl)amino)phenyl)pyrrolidine-1-sulfonamide trifluoroacetate] | 0.077 µM | 0.058 µM | 0.278 µM |  |  |  |  |
| CCc1c(Nc2c(F)ccc(NS(=O)(=O)N3CCCC3)c2Cl)ccc2ncn(C)c(=O)c12 [Example 52, N-(2-chloro-3-((5-ethyl-3-methyl-4-oxo-3,4-dihydroquinazolin-6-yl)amino)-4-fluorophenyl)pyrrolidine-1-sulfonamide trifluoroacetate] | 0.141 µM | 0.124 µM | 0.857 µM |  |  |  |  |
| Cn1cnc2ccc(Oc3c(F)ccc(NS(=O)(=O)N4C[C@@H](F)[C@@H](F)C4)c3Cl)c(F)c2c1=O [Example 64, cis-N-(2-chloro-4-fluoro-3-((5-fluoro-3-methyl-4-oxo-3,4-dihydroquinazolin-6-yl)oxy)phenyl)-3,4-difluoropyrrolidine-1-sulfonamide] |  | 0.007 µM | 0.064 µM | 4.5 | 0.002 µM | 34 ×10⁻⁶ cm/s |  |
| Cn1cnc2ccc(Nc3c(F)ccc(NS(=O)(=O)N4CC5(CCC5)C4)c3Cl)c(Cl)c2c1=O [Example 158, N-(2-chloro-3-((5-chloro-3-methyl-4-oxo-3,4-dihydroquinazolin-6-yl)amino)-4-fluorophenyl)-2-azaspiro[3.3]heptane-2-sulfonamide trifluoroacetate] | 0.008 µM | 0.156 µM |  | 1.5 |  | 26 ×10⁻⁶ cm/s | 1.1 |
| Cn1cnc2ccc(Nc3c(F)ccc(NS(=O)(=O)N4CC5(CCC5)C4)c3Cl)c(F)c2c1=O [Example 159, N-(2-chloro-4-fluoro-3-((5-fluoro-3-methyl-4-oxo-3,4-dihydroquinazolin-6-yl)amino)phenyl)-2-azaspiro[3.3]heptane-2-sulfonamide trifluoroacetate] | 0.008 µM | 0.09 µM |  | 1.8 |  | 33 ×10⁻⁶ cm/s | 1.1 |
| Cc1c(Nc2c(F)ccc(NS(=O)(=O)N3CC4(CC4)C3)c2Cl)ccc2ncn(C)c(=O)c12 [Example 163, N-(2-chloro-3-((3,5-dimethyl-4-oxo-3,4-dihydroquinazolin-6-yl)amino)-4-fluorophenyl)-5-azaspiro[2.3]hexane-5-sulfonamide trifluoroacetate] | 0.008 µM | 0.179 µM |  | 1.9 |  | 23 ×10⁻⁶ cm/s | 1.4 |

Second part, led by results:

| IC50 [1, 7] | IC50 [2] | IC50 [3] | efflux ratio at 2 h, 1 µM [4] | IC50 [1] | Papp at 2 h, 1 µM [5] | SMILES | efflux ratio at 2 h, 1 µM [6] |
| --- | --- | --- | --- | --- | --- | --- | --- |
| 0.003 µM | 0.037 µM | 0.434 µM |  |  |  | Cc1c(Nc2c(F)c(F)cc(NS(=O)(=O)N3CC4CC3C4)c2Cl)ccc2ncn(C)c(=O)c12 [Example 101, N-(2-chloro-3-((3,5-dimethyl-4-oxo-3,4-dihydroquinazolin-6-yl)amino)-4,5-difluorophenyl)-2-azabicyclo[2.1.1]hexane-2-sulfonamide] |  |
| 0.001 µM | 0.073 µM | 0.702 µM |  |  |  | Cc1c(Nc2c(F)c(F)cc(NS(=O)(=O)N3CC4CC4C3)c2Cl)ccc2ncn(C)c(=O)c12 (stereo not drawn) [Example 102, N-(2-chloro-3-((3,5-dimethyl-4-oxo-3,4-dihydroquinazolin-6-yl)amino)-4,5-difluorophenyl)-3-azabicyclo[3.1.0]hexane-3-sulfonamide] |  |
| 0.015 µM | 0.147 µM | 0.268 µM |  |  |  | CO[C@@H]1CCN(S(=O)(=O)Nc2cc(Cl)cc(Nc3ccc4ncn(C)c(=O)c4c3C)c2F)C1 [Example 105, (R)-N-(5-chloro-3-((3,5-dimethyl-4-oxo-3,4-dihydroquinazolin-6-yl)amino)-2-fluorophenyl)-3-methoxypyrrolidine-1-sulfonamide] |  |
| 0.004 µM | 0.006 µM | 0.041 µM | 3.5 |  | 34 ×10⁻⁶ cm/s | COCC1CN(S(=O)(=O)Nc2ccc(F)c(Oc3ccc4ncn(C)c(=O)c4c3Cl)c2Cl)C1 [Example 118, N-(2-chloro-3-((5-chloro-3-methyl-4-oxo-3,4-dihydroquinazolin-6-yl)oxy)-4-fluorophenyl)-3-(methoxymethyl)azetidine-1-sulfonamide] |  |
| 0.006 µM | 0.008 µM | 0.051 µM | 3.8 |  | 32 ×10⁻⁶ cm/s | COC1CN(S(=O)(=O)Nc2ccc(F)c(Oc3ccc4ncn(C)c(=O)c4c3Cl)c2Cl)C1 [Example 119, N-(2-chloro-3-((5-chloro-3-methyl-4-oxo-3,4-dihydroquinazolin-6-yl)oxy)-4-fluorophenyl)-3-methoxyazetidine-1-sulfonamide] |  |
| 0.006 µM | 0.025 µM |  | 2.6 |  | 29 ×10⁻⁶ cm/s | COCC1(F)CN(S(=O)(=O)Nc2ccc(F)c(Nc3ccc4ncn(C)c(=O)c4c3C)c2Cl)C1 [Example 145, N-(2-chloro-3-((3,5-dimethyl-4-oxo-3,4-dihydroquinazolin-6-yl)amino)-4-fluorophenyl)-3-fluoro-3-(methoxymethyl)azetidine-1-sulfonamide trifluoroacetate] | 2.4 |
| 0.033 µM | 0.087 µM |  | 1.3 |  | 38 ×10⁻⁶ cm/s | CCOC1CN(S(=O)(=O)Nc2ccc(F)c(Nc3ccc4ncn(C)c(=O)c4c3C)c2Cl)C1 [Example 160, N-(2-chloro-3-((3,5-dimethyl-4-oxo-3,4-dihydroquinazolin-6-yl)amino)-4-fluorophenyl)-3-ethoxyazetidine-1-sulfonamide] | 1.3 |
| 0.024 µM | 0.245 µM |  | 1.9 |  | 27 ×10⁻⁶ cm/s | Cc1c(Nc2c(F)ccc(NS(=O)(=O)N3CC(OC(F)F)C3)c2Cl)ccc2ncn(C)c(=O)c12 [Example 161, N-(2-chloro-3-((3,5-dimethyl-4-oxo-3,4-dihydroquinazolin-6-yl)amino)-4-fluorophenyl)-3-(difluoromethoxy)azetidine-1-sulfonamide] | 2.6 |
